Results taken from patent US6825350B2, “Sulfonamide and sulfamide substituted imidazoquinolines and methods for the treatment of periodontal disease using these and other immune response modifiers” (3M Innovative Properties Company, priority 1999, dated 2004).
Where a name gives a salt, the structure may show the parent alone. Read-outs that look alike come from different tables or passages of the source.

Tests used:
interferon (α) = assay: Cytokine induction in human cells: interferon (α) by ELISA; type: cell-based; conditions: human PBMCs, 18 to 24 hours incubation, ELISA of culture supernatant, read-out: Lowest Effective Concentration (μM) Interferon
[1] = system: tumor necrosis factor (α); assay: Cytokine induction in human cells: tumor necrosis factor (α) by ELISA; type: cell-based; conditions: human PBMCs, 18 to 24 hours incubation, ELISA of culture supernatant, read-out: Lowest Effective Concentration (μM) Tumor Necrosis Factor

## COc1ccc(Cc2nc3c(N)nc4ccccc4c3n2CCCCNS(C)(=O)=O)cc1 [Example 12, N-[4-(4-Amino-2-(4-methoxybenzyl)-1H-imidazo[4,5-c]quinolin-1-yl]butyl]methanesulfonamide]
other
  melting point: 78.1 to 79.5 °C

## COCCc1nc2c(N)nc3c(c2n1CCCCNS(=O)(=O)c1ccc(F)cc1)CCCC3 [Example 14, N^1-{4-[4-Amino-2-(2-methoxyethyl)-6,7,8,9-tetrahydro-1H-imidazo[4,5-c]quinolin-1-yl]butyl}-4-fluoro-1-benzenesulfonamide]
other
  melting point: 191 to 193 °C

## CCCCc1nc2c(N)nc3ccccc3c2n1CCCCNS(=O)(=O)c1cccs1 [Example 3, N^2-[4-(4-Amino-2-butyl-1H-imidazo[4,5-c]quinolin-1-yl)butyl]-2-thiophenesulfonamide]
other
  melting point: 137.5 to 141.5 °C
Interferon (α)
  minimal effective concentration: 0.01 µM

## Nc1nc2ccccc2c2c1nc(-c1ccccc1)n2CCCCNS(=O)(=O)c1ccc(F)cc1 [Example 15, N-[4-(4-Amino-2-phenyl-1H-imidazo[4,5-c]quinolin-1-yl)butyl]-4-fluoro-1-benzenesulfonamide]
other
  melting point: 214 to 216 °C

## CCCCc1nc2c(N)nc3ccccc3c2n1CCCCNS(=O)(=O)c1ccc(N)cc1 (as salt: hydrochloride)
other
  melting point: 203.1 to 205 °C

## CN(C)c1cccc2c(S(=O)(=O)NCCCCn3cnc4c(N)nc5ccccc5c43)cccc12 [Example 2, N^1-[4-(4-Amino-1H-imidazo[4,5-c]quinolin-1-yl)butyl]-5-(dimethylamino)-1-naphthalenesulfonamide]
other
  melting point: 200 to 201 °C
[1]; Homo sapiens, PBMC
  minimal effective concentration: > 30 µM
Interferon (α); Homo sapiens, PBMC
  minimal effective concentration: > 30 µM

## CCCCc1nc2c(N)nc3ccccc3c2n1CCCCNS(=O)(=O)c1ccc([N+](=O)[O-])cc1 (as salt: hydrochloride) [Example 9, N^1-[4-(4-Amino-2-butyl-1H-imidazo[4,5-c]quinolin-1-yl)butyl]-4-nitro-1-benzenesulfonamide Hydrochloride]
other
  melting point: 96 °C (dec.)

## CCCCc1nc2c(N)nc3ccccc3c2n1CCCCNS(=O)(=O)c1cccc([N+](=O)[O-])c1 (as salt: hydrochloride) [Example 7, N^1-[4-(4-Amino-2-butyl-1H-imidazo[4,5-c]quinolin-1-yl)butyl]-3-nitro-1-benzenesulfonamide Hydrochloride]
other
  melting point: 176 to 178.2 °C

## CS(=O)(=O)NCCCCn1c(-c2ccccc2)nc2c(N)nc3ccccc3c21 [Example 16, N-[4-(4-Amino-2-phenyl-1H-imidazo[4,5-c]quinolin-1-yl)butyl]methanesulfonamide]
other
  melting point: 234 to 235 °C

## CCCCc1nc2c(N)nc3ccccc3c2n1CCCCNS(=O)(=O)c1ccccc1 [Example 5, N^1-[4-(4-Amino-2-butyl-1H-imidazo [4,5-c]quinolin-1-yl)butyl]-1-benzenesulfonamide]
other
  melting point: 75.5 to 79 °C

## CCCCc1nc2c(N)nc3ccccc3c2n1CCCCNS(=O)(=O)c1cccc(N)c1 (as salt: hydrochloride)
other
  melting point: 110.2 °C (dec.)

## CC(C)(C)c1ccc(S(=O)(=O)NCCCCn2cnc3c(N)nc4c(c32)CCCC4)cc1 [Example 62]
[1]; Homo sapiens, PBMC
  minimal effective concentration: > 30 µM
Interferon (α); Homo sapiens, PBMC
  minimal effective concentration: > 30 µM

## CCCCc1nc2c(N)nc3ccccc3c2n1CCCCNS(=O)(=O)c1cc(Br)ccc1OC [Example 105]
[1]
  minimal effective concentration: 10 µM
Interferon (α)
  minimal effective concentration: 1 µM

## CCCCc1nc2c(N)nc3ccccc3c2n1CCCCNS(=O)(=O)c1ccc(C(C)(C)C)cc1 [Example 47]
[1]; Homo sapiens, PBMC
  minimal effective concentration: > 30 µM
Interferon (α); Homo sapiens, PBMC
  minimal effective concentration: 0.37 µM

## COCCc1nc2c(N)nc3c(c2n1CCCCNS(=O)(=O)Cc1ccccc1)CCCC3 [Example 211]
[1]; Homo sapiens, PBMC
  minimal effective concentration: 1 µM
Interferon (α); Homo sapiens, PBMC
  minimal effective concentration: 0.0001 µM

## CCOCc1nc2c(N)nc3ccccc3c2n1CCNS(=O)(=O)c1cccc2c(N(C)C)cccc12 [Example 110]
[1]; Homo sapiens, PBMC
  minimal effective concentration: > 10 µM
Interferon (α); Homo sapiens, PBMC
  minimal effective concentration: 10 µM

## CCCCc1nc2c(N)nc3ccccc3c2n1CCCCNS(=O)(=O)c1cccc2cnccc12 [Example 11, N^5-[4-(4-Amino-2-butyl-1H-imidazo[4,5-c]quinolin-1-yl)butyl]-5-isoquinolinesulfonamide]
other
  melting point: 96 °C (dec.)
[1]; Homo sapiens, PBMC
  minimal effective concentration: 1.11 µM
Interferon (α); Homo sapiens, PBMC
  minimal effective concentration: 0.01 µM

## CCCCc1nc2c(N)nc3ccccc3c2n1CCCCNS(=O)(=O)c1c(F)c(F)c(F)c(F)c1F [Example 90]
[1]; Homo sapiens, PBMC
  minimal effective concentration: 1 µM
Interferon (α); Homo sapiens, PBMC
  minimal effective concentration: 0.01 µM

## Nc1nc2c(c3c1ncn3CCCCNS(=O)(=O)c1cccc3cccnc13)CCCC2 [Example 69]
[1]; Homo sapiens, PBMC
  minimal effective concentration: > 30 µM
Interferon (α); Homo sapiens, PBMC
  minimal effective concentration: 10 µM

## CCCCc1nc2c(N)nc3ccccc3c2n1CCNS(=O)(=O)c1ccc(C)cc1 [Example 23]
[1]; Homo sapiens, PBMC
  minimal effective concentration: 10 µM
Interferon (α); Homo sapiens, PBMC
  minimal effective concentration: 0.12 µM

## CCS(=O)(=O)NCCCCn1c(CCOC)nc2c(N)nc3c(c21)CCCC3 [Example 207]
[1]; Homo sapiens, PBMC
  minimal effective concentration: 1 µM
Interferon (α); Homo sapiens, PBMC
  minimal effective concentration: 0.001 µM

## CCOCc1nc2c(N)nc3ccccc3c2n1CCNS(=O)(=O)c1cccs1 [Example 109]
[1]; Homo sapiens, PBMC
  minimal effective concentration: 10 µM
Interferon (α); Homo sapiens, PBMC
  minimal effective concentration: 1 µM

## COCCc1nc2c(N)nc3ccccc3c2n1CCCCNS(=O)(=O)c1ccccc1 [Example 158]
[1]; Homo sapiens, PBMC
  minimal effective concentration: 1 µM
Interferon (α); Homo sapiens, PBMC
  minimal effective concentration: 0.0001 µM

## COCCc1nc2c(N)nc3ccccc3c2n1CCCCNS(=O)(=O)c1cccc2c(N(C)C)cccc12 [Example 114]
[1]; Homo sapiens, PBMC
  minimal effective concentration: > 10 µM
Interferon (α); Homo sapiens, PBMC
  minimal effective concentration: 0.01 µM

## CCCCc1nc2c(N)nc3ccccc3c2n1CCCCNS(=O)(=O)c1cccc(F)c1 [Example 95]
[1]; Homo sapiens, PBMC
  minimal effective concentration: 1 µM
Interferon (α); Homo sapiens, PBMC
  minimal effective concentration: 0.001 µM

## COCCc1nc2c(N)nc3ccccc3c2n1CCCCNS(=O)(=O)Cc1ccccc1[N+](=O)[O-] [Example 138]
[1]; Homo sapiens, PBMC
  minimal effective concentration: 10 µM
Interferon (α); Homo sapiens, PBMC
  minimal effective concentration: 0.0001 µM

## CCCCc1nc2c(N)nc3ccccc3c2n1CCCCNS(=O)(=O)C(F)(F)F [Example 53]
[1]; Homo sapiens, PBMC
  minimal effective concentration: 3.33 µM
Interferon (α); Homo sapiens, PBMC
  minimal effective concentration: 0.01 µM

## CCCCCCCCS(=O)(=O)NCCn1c(CCCC)nc2c(N)nc3ccccc3c21 [Example 18]
[1]; Homo sapiens, PBMC
  minimal effective concentration: > 30 µM
Interferon (α); Homo sapiens, PBMC
  minimal effective concentration: 3.33 µM

## CCCCc1nc2c(N)nc3ccccc3c2n1CCCCNS(=O)(=O)c1cccc2c(N(C)C)cccc12 [Example 1, N^1-[4-(4-Amino-2-butyl-1H-imidazo[4,5-c]quinolin-1-yl)butyl]-5-(dimethylamino)-1-naphthalenesulfonamide]
other
  melting point: 223 to 224 °C
[1]; Homo sapiens, PBMC
  minimal effective concentration: 3.33 µM
Interferon (α); Homo sapiens, PBMC
  minimal effective concentration: 0.12 µM

## COCCc1nc2c(N)nc3ccccc3c2n1CCCCNS(=O)(=O)N1CCCC1 [Example 229]
[1]; Homo sapiens, PBMC
  minimal effective concentration: 0.1 µM
Interferon (α); Homo sapiens, PBMC
  minimal effective concentration: 0.0001 µM

## Nc1nc2c(c3c1ncn3CCCCNS(=O)(=O)c1ccc(I)cc1)CCCC2 [Example 61]
[1]; Homo sapiens, PBMC
  minimal effective concentration: > 30 µM
Interferon (α); Homo sapiens, PBMC
  minimal effective concentration: 3.33 µM

## CCCCc1nc2c(N)nc3ccccc3c2n1CCCCNS(=O)(=O)c1cccs1 [Example 44]
[1]
  minimal effective concentration: 1.11 µM
Interferon (α)
  minimal effective concentration: 0.0015 µM

## CCCCc1nc2c(N)nc3ccccc3c2n1CCNS(=O)(=O)c1ccc(C(C)(C)C)cc1 [Example 25]
[1]; Homo sapiens, PBMC
  minimal effective concentration: > 30 µM
Interferon (α); Homo sapiens, PBMC
  minimal effective concentration: 3.33 µM

## CCCCc1nc2c(N)nc3ccccc3c2n1CCCCNS(=O)(=O)c1ccc(Cl)c([N+](=O)[O-])c1 [Example 86]
[1]; Homo sapiens, PBMC
  minimal effective concentration: 1 µM
Interferon (α); Homo sapiens, PBMC
  minimal effective concentration: 0.01 µM

## CCCCc1nc2c(N)nc3ccccc3c2n1CCCCNS(=O)(=O)Cc1ccccc1 [Example 4, N-[4-(4-Amino-2-butyl-1H-imidazo[4,5-c]quinolin-1-yl)butyl]phenylmethanesulfonainide]
other
  melting point: 197 to 199.5 °C

## CCCCc1nc2c(N)nc3c(c2n1CCCCNS(=O)(=O)C(C)C)CCCC3 [Example 203]
[1]; Homo sapiens, PBMC
  minimal effective concentration: 1 µM
Interferon (α); Homo sapiens, PBMC
  minimal effective concentration: 0.0001 µM

## CCCCc1nc2c(N)nc3ccccc3c2n1CCCCNS(=O)(=O)c1c(C)cc(C)cc1C [Example 45]
[1]; Homo sapiens, PBMC
  minimal effective concentration: > 30 µM
Interferon (α); Homo sapiens, PBMC
  minimal effective concentration: 0.37 µM

## CCOCc1nc2c(N)nc3ccccc3c2n1CCNS(C)(=O)=O [Example 108]
[1]; Homo sapiens, PBMC
  minimal effective concentration: 10 µM
Interferon (α); Homo sapiens, PBMC
  minimal effective concentration: 0.1 µM
